Our source for the Kd values is PubChem BioAssay AID1549 (Sanford-Burnham Center for Chemical Genomics, 2009).

Activity calls are given as the source filed them. The rule behind the calls is not given here.

The assay addresses Influenza A virus M2 proton channel (A/TW/4845/1999 H1N1). The assay can be described thus: NMR binding screen, influenza A virus M2 proton channel, Kd (AID 1549). The note with it: M2 protein.
`CC(C)[C@@H]1CC[C@@H](C)C[C@H]1O`: the Kd (usually the constant that tells how readily two partners part at equilibrium) was > 4 mM (inactive).

In the case of `CN1CCN(C(=S)c2ccc(N(C)C)cc2)CC1`, the Kd was > 4 mM (inactive).

Turning to `O=C1NC(=O)/C(=C\c2ccco2)S1`, the Kd was > 4 mM (inactive).

With `Cn1[nH]c2nc3[nH]n(C)c(=O)c3c(-c3ccccc3)c2c1=O`, the Kd was > 4 mM (inactive).

Turning to `CN(C)N1C(=O)C2CCCCC2C1=O` (stereo not drawn), the Kd is > 4 mM (inactive).

Regarding `O=C(Nc1ccc2c(c1)OCO2)c1cccs1`, the Kd is > 4 mM (inactive).

As for `COC(=O)c1c(C)cc(OC)cc1O`, the Kd was > 4 mM (inactive).

Regarding `Cc1occc1C(=O)N1CCC2(CC1)OCCO2`, the Kd was > 4 mM (inactive).

`O=C(O)c1cncc(-c2cccs2)c1`: the Kd was > 4 mM (inactive).

Regarding `Cc1ccc(S(=O)(=O)CCc2ccccn2)cc1`, the Kd is > 4 mM (inactive).

Consider `Cc1cc(C(=O)O)n[nH]1`, for which the Kd is > 4 mM (inactive).

In the case of `CNc1nnc(Cc2csc(N)n2)s1`, the Kd is > 4 mM (inactive).

With `O=C(/C=C/C=C/c1ccc2c(c1)OCO2)N1CCCCC1`, the Kd is > 4 mM (inactive).

As to `O=C(c1ccco1)N1CCn2c1nc1ccccc12`, the Kd was > 4 mM (inactive).

Regarding `O=S(=O)(c1ccc(F)c(Cl)c1)N1CCCC1`, the Kd is > 4 mM (inactive).

`O=c1nc(NCc2ccco2)sc2ncccc12`: the Kd is > 4 mM (inactive).

As for `Cc1cc(C(=O)Nc2ccon2)cs1`, the Kd was > 4 mM (inactive).

In the case of `COc1ccccc1NC(=O)C1CCCCC1`, the Kd is > 4 mM (inactive).

For the compound `CN1C2C[C@H](OC(=O)[C@H](CO)c3ccccc3)C[C@H]1[C@@H](O)C2`, the Kd was > 4 mM (inactive).

Consider `CC(=O)Nc1ccc(C(=O)n2nc(C)cc2C)cc1`, for which the Kd was > 4 mM (inactive).

`Cc1cc(C(F)(F)F)nn1CC(N)=O`: the Kd was > 4 mM (inactive).

As to `O=C(Nc1cccc2ncccc12)c1cccnc1`, the Kd is > 4 mM (inactive).

As to `Cc1ccc(C(=O)NCCO)c(Cl)c1`, the Kd is > 4 mM (inactive).

As to `Nc1cccc(OC(F)(F)F)c1`, the Kd is > 4 mM (inactive).

On to `Cc1cc(=O)n2[nH]c(C)cc2n1`, for which the Kd is > 4 mM (inactive).

Regarding `COc1cc(OC)c2ccc(=O)oc2c1`, the Kd was > 4 mM (inactive).

Turning to `O=C(c1cnsn1)N1CCN(c2ccccc2)CC1`, the Kd was > 4 mM (inactive).

Regarding `C=CC(C1=CC(=O)C(OC)=CC1=O)c1ccccc1` (stereo not drawn), the Kd was > 4 mM (inactive).

For the compound `O=C(c1ccc(Cl)s1)N1CCOCC1`, the Kd is > 4 mM (inactive).

As to `Nc1cc(-c2ccco2)[nH]n1`, the Kd is > 4 mM (inactive).

In the case of `Nc1nc(-c2ccc(F)c(F)c2)cs1`, the Kd is > 4 mM (inactive).

Regarding `O=C(O)c1cccc2c1OCCO2`, the Kd is > 4 mM (inactive).

`O=c1nc(N2CCOCC2)nc2n1CCO2`: the Kd is > 4 mM (inactive).

For the compound `COc1cc2c(cc1O)CC1c3c(cc(O)c(OC)c3-2)CCN1C` (stereo not drawn), the Kd is > 4 mM (inactive).

As for `CC(C)C1COc2cc3oc(=O)ccc3cc2O1` (stereo not drawn), the Kd is > 4 mM (inactive).

For the compound `O=C(O)CC[N+](=O)[O-]`, the Kd is > 4 mM (inactive).

For the compound `Cn1cc(Cl)c(C(=O)Nc2ccc(F)cc2F)n1`, the Kd was > 4 mM (inactive).

Take `Cc1cc(NC(=O)NCCCSc2nncn2C)no1`: the Kd was > 4 mM (inactive).

On to `Oc1ccc2c(c1)OCC1(O)Cc3cc(O)c(O)cc3C21` (stereo not drawn), for which the Kd is > 4 mM (inactive).

`O=C(c1ccco1)N1CCNCC1`: the Kd was > 4 mM (inactive).

On to `O=c1[nH]cc(N2CCCCC2)c(=O)[nH]1`, for which the Kd is > 4 mM (inactive).

Regarding `O=C1NC(=O)C(=Cc2ccccc2)C(=O)N1`, the Kd was > 4 mM (inactive).

For the compound `CCn1c(=O)cc(N2CCC3(CC2)OCCO3)[nH]c1=O`, the Kd is > 4 mM (inactive).

Regarding `CC(C)(OC(=O)c1ccccc1)[C@@H]1Cc2cc3ccc(=O)oc3cc2O1`, the Kd is > 4 mM (inactive).

Consider `COC(=O)NCc1cc2cc(Cl)ccc2[nH]1`, for which the Kd is > 4 mM (inactive).

As to `COc1ccc(-c2coc3cc(O)ccc3c2=O)c(OC)c1`, the Kd was > 4 mM (inactive).

As for `CC(=O)Nc1ccc(S(=O)(=O)N(C)C)cc1`, the Kd was > 4 mM (inactive).

In the case of `CNC(=O)c1c(O)c2ccccc2[nH]c1=O`, the Kd is > 4 mM (inactive).

`O=c1[nH]cc(N=Cc2ccc(F)cc2)c(=O)[nH]1`: the Kd is > 4 mM (inactive).

With `NC(=O)CSc1ccc(Br)cc1`, the Kd is > 4 mM (inactive).

Turning to `O=C(Nc1ccc(O)cc1)N1CCOCC1`, the Kd is > 4 mM (inactive).

Take `OCC1CCCCCN1` (stereo not drawn): the Kd is > 4 mM (inactive).

For the compound `COC(=O)c1c(OC)cc2c(c1C)Oc1c(Cl)c(O)c(Cl)c(C)c1C(=O)O2`, the Kd is > 4 mM (inactive).

With `Cn1c(O)c(/C=C2\C=CC=N2)c(=O)[nH]c1=O`, the Kd is > 4 mM (inactive).

With `COc1cc(OC)c2c(=O)c(OC)c(-c3ccc(OC)c(OC)c3)oc2c1`, the Kd is > 4 mM (inactive).

As for `CN(C)C(=O)N1CCN(C(=O)c2ccco2)CC1`, the Kd is > 4 mM (inactive).

Regarding `OCc1ccc2nonc2c1`, the Kd was > 4 mM (inactive).

In the case of `Nc1nc(SCc2ccc3c(c2)OCCO3)n[nH]1`, the Kd is > 4 mM (inactive).

With `Nc1cc(=O)[nH]c(SCC(=O)Nc2nccs2)n1`, the Kd is > 4 mM (inactive).

For `Cn1c(=O)c2c(n(C)c1=O)=NC1(CCCCC1)N=2`, the Kd is > 4 mM (inactive).

As for `COc1cc(C/C=C/c2ccccc2)c(OC)cc1O`, the Kd is > 4 mM (inactive).

`O=C(NCc1cccnc1)c1ccccn1`: the Kd was > 4 mM (inactive).

With `Cc1nc2ccccc2c(=O)n1-c1cccc(O)c1`, the Kd was > 4 mM (inactive).

As to `C/C=C1\[C@H]2C=C(C)C[C@]1(N)c1ccc(=O)[nH]c1C2`, the Kd is > 4 mM (inactive).

In the case of `COc1ccccc1-c1n[nH]c(=O)o1`, the Kd is > 4 mM (inactive).

Regarding `COc1cc(OC)c2c(=O)c(-c3ccccc3)coc2c1`, the Kd was > 4 mM (inactive).

For the compound `N#CC(O[C@@H]1O[C@H](CO[C@@H]2O[C@H](CO)[C@@H](O)[C@H](O)[C@H]2O)[C@@H](O)[C@H](O)[C@H]1O)c1ccccc1` (stereo partly drawn), the Kd was > 4 mM (inactive).

`O=S1(=O)CCC(NC(=S)Nc2ccc(O)cc2)C1` (stereo not drawn): the Kd was > 4 mM (inactive).

`Cc1nnc(SCC(=O)NCc2ccccc2)[nH]c1=O`: the Kd is > 4 mM (inactive).

As to `COc1ccc(S(=O)(=O)Nc2ccccn2)c(C)c1C`, the Kd is > 4 mM (inactive).

As to `COc1cc([C@@H]2c3cc4c(cc3[C@H](OC(C)=O)[C@H]3COC(=O)[C@H]23)OCO4)cc(OC)c1OC`, the Kd is > 4 mM (inactive).

`Cc1cc(C)n(/N=C\c2cccs2)c(=O)c1C(N)=O`: the Kd is > 4 mM (inactive).

As to `COc1ccc(-c2cc(=O)c3c(OC)c(OC)c(OC)c(OC)c3o2)cc1`, the Kd was > 4 mM (inactive).

In the case of `Cn1c(CSc2nc3ccccc3s2)n[nH]c1=S`, the Kd was > 4 mM (inactive).

Regarding `CN(C)S(=O)(=O)c1ccc(C(=O)NN)cc1`, the Kd was > 4 mM (inactive).

Take `CCOC(=O)CSc1nnc(C)c(=O)[nH]1`: the Kd was > 4 mM (inactive).

Consider `CCOC(=O)c1ccc(F)cc1F`, for which the Kd is > 4 mM (inactive).

Take `CNC(=O)c1ccc([N+](=O)[O-])cc1Cl`: the Kd was > 4 mM (inactive).

In the case of `OCC1CCN(Cc2ccccc2)CC1`, the Kd was > 4 mM (inactive).

In the case of `CC1=NN(c2ccc(C)cc2)C(=O)C1`, the Kd was > 4 mM (inactive).

For the compound `O=C(O)c1csc(-c2cccnc2)n1`, the Kd is > 4 mM (inactive).

As for `COc1ccc2c(=O)c(CC(=O)O)coc2c1`, the Kd was > 4 mM (inactive).

In the case of `O=C1CCCCCN1CO`, the Kd was > 4 mM (inactive).

Regarding `O=C(O)c1ccc(CN2CCCCC2)o1`, the Kd is > 4 mM (inactive).

Consider `O=C(O)CCC1NCC2CC1CN1CCCCC21` (stereo not drawn), for which the Kd is > 4 mM (inactive).

On to `O=C1Nc2ccccc2C1C1(O)C(=O)Nc2ccc(F)cc21` (stereo not drawn), for which the Kd is > 4 mM (inactive).

As to `O=C(NCCO)c1cc2ccccc2cc1O`, the Kd is > 4 mM (inactive).

As for `S=c1[nH]nc(-c2cccnc2)n1Cc1ccccc1`, the Kd is > 4 mM (inactive).

Consider `CNC(=S)NCCN1CCOCC1`, for which the Kd was > 4 mM (inactive).

Regarding `Cc1cc(-c2ccccc2)nc2cc(C(N)=O)nn12`, the Kd is > 4 mM (inactive).

`COc1c(CC=C(C)C)c2c(c3oc(=O)c(-c4ccc(O)cc4)c(O)c13)C=CC(C)(C)O2`: the Kd was > 4 mM (inactive).

Turning to `NC(=O)CS(=O)(=O)c1ccc(Cl)cc1`, the Kd was > 4 mM (inactive).

As for `COc1ccc(C)cc1-n1c(-c2ccncc2)n[nH]c1=S`, the Kd was > 4 mM (inactive).

`Cn1c(=O)c2[nH]cnc2n(C)c1=O`: the Kd was > 4 mM (inactive).

`CN1CCN(S(=O)(=O)c2ccc(=O)[nH]c2)CC1`: the Kd is > 4 mM (inactive).

With `OCC(O)Cc1ccc2c(c1)OCO2` (stereo not drawn), the Kd is > 4 mM (inactive).

Take `C=C(C)C1Cc2c(ccc(C(=O)O)c2O)O1` (stereo not drawn): the Kd was > 4 mM (inactive).

Turning to `COC(=O)C[C@H]1C2(C)CC34OC5(C)O[C@@]6([C@H](OC(C)=O)C(OC(C)=O)[C@]7(C)C(/C(=C(/O)C(C)C)C(=O)O[C@H]7c7ccoc7)[C@@]6(O5)[C@H](OC(C)=O)[C@@]3(O)C2OC(=O)C(C)C)[C@]14C` (stereo partly drawn), the Kd was > 4 mM (inactive).

Consider `Nc1[nH]c(=S)ncc1S(=O)(=O)c1ccccc1`, for which the Kd is > 4 mM (inactive).

Consider `CC1=CC(=O)C2C(C)(C)CCC[C@]2(C)[C@@]1(O)CCc1ccoc1` (stereo partly drawn), for which the Kd is > 4 mM (inactive).

On to `COc1cccc(-c2nn(-c3ccccc3)cc2CO)c1`, for which the Kd was > 4 mM (inactive).

With `NC(=O)c1ccc(NC(=O)c2cccnc2)cc1`, the Kd is > 4 mM (inactive).

As for `O=S1(=O)CCC(NC(=S)N2CCCCC2)C1` (stereo not drawn), the Kd was > 4 mM (inactive).
